Values of other authors in PMC10583817 (RSC Medicinal Chemistry, 2023).

Tested on: WIN site of WDR5
Conditions: cited from earlier work

Structure (SMILES): Cc1nc(F)ccc1-c1cc(Cn2ccn(C)c2=N)cc(C(=O)NCc2ccc(Cl)c(Cl)c2)c1 [WIN-IN-4]
- binding activity: sub-nanomole
